Measured values reported in ChEMBL document CHEMBL1201862, “PubChem BioAssay data set” (2004).
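A five-concentration, 48-hour dose response in 96-well plates underlies each endpoint, interpolated linearly between surrounding concentrations. At the GI50, growth is halved.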 The source made the active and inactive calls. Cut-off read from the data, not from the text of the source: active = GI50 up to about 1.1 µM and inactive = higher.

What was measured:
Assay in all cases: DTP human tumour cell line panel, 48 h
[1] = tested on: HL-60
[2] = tested on: LOX IMVI
[3] = tested on: IGROV-1
[4] = tested on: SK-MEL-2
[5] = tested on: TK-10
[6] = tested on: Hs-578T
[7] = tested on: MOLT-4
[8] = tested on: RPMI-8226
[9] = tested on: SN12C
[10] = tested on: EKVX
[11] = tested on: Malme-3M
[12] = tested on: NCI/ADR-RES
[13] = tested on: SF-268
[14] = tested on: SF-539
[15] = tested on: A549
[16] = tested on: NCI-H226
[17] = tested on: 786-0
[18] = tested on: MDA-N
[19] = tested on: CAKI-1

Measured: GI50

CN(C)CCNc1c([N+](=O)[O-])sc2ccc(Cl)cc12
inactive: [1] > 100 µM | [2] 3.49 µM | [3] 26.1 µM | [4] 33.5 µM | [5] 91 µM | [6] 21.3 µM | [7] 2.37 µM | [8] > 100 µM | [9] 7.66 µM | [10] 44.7 µM | [11] 26.9 µM | [12] 11.1 µM | [13] 18.3 µM | [14] 14 µM | [15] 11.9 µM | [16] 15.8 µM | [17] 12.2 µM

Cc1cc2oc(=O)[nH]c(=S)c2c(C)c1C
inactive: [1] > 100 µM | [2] > 100 µM | [3] > 100 µM | [4] > 100 µM | [5] > 100 µM | [7] > 100 µM | [8] > 100 µM | [9] > 100 µM | [10] 48.2 µM | [11] > 100 µM | [13] > 100 µM | [14] > 100 µM | [15] > 100 µM | [16] > 100 µM | [17] > 100 µM

C=C(CCC/C(C)=C/C=C/[C@H](C)CCCc1ccoc1)C[C@@H]1OC(=O)[C@H](C)[C@@H]1O
inactive: [2] 13.6 µM | [3] 11.2 µM | [4] 9.14 µM | [5] 10.6 µM | [7] 15.3 µM | [8] 10.8 µM | [9] 8.79 µM | [18] 9.98 µM | [10] 9.84 µM | [19] 8.99 µM | [11] 9.4 µM | [12] 9.71 µM | [13] 9.2 µM | [14] 8.63 µM | [15] 5.7 µM | [16] 8.18 µM | [17] 11.2 µM

CC(=O)Nc1nnc(S(C)(=O)=O)s1
inactive: [1] > 100 µM | [5] > 100 µM | [7] > 100 µM | [8] > 100 µM | [9] > 100 µM | [18] > 100 µM | [10] > 100 µM | [11] > 100 µM | [12] > 100 µM | [13] > 100 µM | [14] > 100 µM | [15] > 100 µM | [16] > 100 µM | [17] > 100 µM

COC(=O)[C@]12CSC[C@H]1C[C@H](c1ccccc1OC)N2
inactive: [2] > 100 µM | [3] 85.9 µM | [4] > 100 µM | [5] > 100 µM | [7] > 100 µM | [8] > 100 µM | [9] > 100 µM | [18] > 100 µM | [10] > 100 µM | [19] > 100 µM | [11] > 100 µM | [12] > 100 µM | [13] > 100 µM | [14] > 100 µM | [15] > 100 µM | [16] > 100 µM | [17] > 100 µM

COc1ccc(NC(=O)CC(=O)N2N=C(N(c3ccccc3)c3ccccc3)CC2c2ccccc2)cc1 (stereo not given)
inactive: [1] > 100 µM | [2] > 100 µM | [3] > 100 µM | [4] > 100 µM | [5] > 100 µM | [6] 98.4 µM | [7] > 100 µM | [8] > 100 µM | [9] > 100 µM | [10] > 100 µM | [19] > 100 µM | [12] > 100 µM | [13] > 100 µM | [14] > 100 µM | [15] > 100 µM | [16] > 100 µM | [17] > 100 µM

CC(=O)NC(C)(C)C1CC=C(C)/C(=N\O)C1 (stereo not given)
inactive: [1] > 100 µM | [2] > 100 µM | [3] > 100 µM | [5] > 100 µM | [7] > 100 µM | [9] > 100 µM | [18] > 100 µM | [10] > 100 µM | [13] > 100 µM | [14] > 100 µM | [15] > 100 µM | [17] > 100 µM

OC(CN(CCCl)CCCl)C(O)C(O)C(O)CN(CCCl)CCCl (stereo not given)
inactive: [1] 5.04 µM | [2] 27.4 µM | [3] > 100 µM | [4] > 100 µM | [5] > 100 µM | [6] > 100 µM | [8] > 100 µM | [9] 23.2 µM | [10] > 100 µM | [19] > 100 µM | [11] 85.7 µM | [12] 78.9 µM | [13] 41.6 µM | [14] 52.4 µM | [15] > 100 µM | [16] > 100 µM | [17] 91 µM

Cc1ccc2c(=O)cc(Cc3cccs3)[nH]c2n1
inactive: [1] > 100 µM | [2] > 100 µM | [3] > 100 µM | [4] > 100 µM | [5] > 100 µM | [6] > 100 µM | [7] > 100 µM | [8] > 100 µM | [9] > 100 µM | [10] > 100 µM | [19] > 100 µM | [11] > 100 µM | [12] > 100 µM | [13] > 100 µM | [15] > 100 µM | [16] > 100 µM | [17] > 100 µM

CN(c1ccccc1)S(=O)(=O)c1ccc([N+](=O)[O-])cc1
inactive: [1] 57 µM | [2] > 100 µM | [4] > 100 µM | [5] > 100 µM | [8] 61.5 µM | [9] > 100 µM | [18] > 100 µM | [10] > 100 µM | [19] > 100 µM | [11] 40.6 µM | [12] 95.1 µM | [13] > 100 µM | [14] > 100 µM | [15] > 100 µM | [16] > 100 µM | [17] > 100 µM

CC(=O)COC(=O)CC(C)=O
inactive: [1] > 100 µM | [2] > 100 µM | [3] > 100 µM | [4] > 100 µM | [5] > 100 µM | [7] > 100 µM | [8] > 100 µM | [9] > 100 µM | [10] > 100 µM | [19] > 100 µM | [11] > 100 µM | [13] > 100 µM | [14] > 100 µM | [15] > 100 µM | [16] > 100 µM | [17] > 100 µM

CCCCCCCCCCSC(=O)NC
inactive: [1] 19 µM | [2] 32.9 µM | [3] 79.8 µM | [4] 22.5 µM | [5] 37.9 µM | [7] 18.5 µM | [8] 21.9 µM | [9] 25.7 µM | [10] 27.2 µM | [19] 25.9 µM | [11] 36.3 µM | [13] 31.8 µM | [14] 35.3 µM | [15] 37.8 µM | [17] 35.2 µM
